Laboratory results: US20090023775A1, “1-[2-(4-BENZYL-4-HYDROXY-PIPERIDIN-1 -YL )-ETHYL]-3-(2-METHYL-QUINOLIN- 4-YL)- UREA AS CRYSTALLINE SULFATE SALT” (Actelion Pharmaceuticals Ltd., priority 2004, published 2009)

Columns and labels:
[1] = Dynamic vapor sorption (DVS), gravimetric measurement under controlled relative humidity; assay type: physicochemical
Description: X-ray diffraction patterns (XRD) were recorded on a Bruker D5000, using a Cu-Kalpha (1.5418 Å) source, a 40 kV -30 mA generator, in a range of 3 et 40° (2theta). DVS is performed as gravimetric measurement (10-30 mg of sample), at a given temperature, under controlled relative humidity. Measurements are performed on a SMS (Surface Measurement Systems) DVS 1000. First, the sample is dried (0% RH) under dry nitrogen at the experiment temperature. Then a cycle of relative humidity (RH) is applied to the sample (generally increase by steps e.g. 20, 40, 60 and 80% RH and decrease to 0% RH by the same steps). The duration of each step of RH is sufficient to reach a weight equilibrium.
Table 2 summarizes the results of two cycles (0 to 85% relative humidity) in a DVS measurement (40° C.) of 1-[2-(4-benzyl-4-hydroxy-piperidin-1-yl)-ethyl]-3-(2-methyl-quinolin-4-yl)-urea sulfate trihydrate described in Example 1.
Table 4 summarizes the results of three cycles (0 to 85% relative humidity) in a DVS measurement (25° C.) of 1-[2-(4-benzyl-4-hydroxy-piperidin-1-yl)-ethyl]-3-(2-methyl-quinolin-4-yl)-urea sulfate trihydrate described in Example 2.

urotensin II receptor = target: T1, urotensin II receptor (Homo sapiens, UniProt Q9UKP6); settings: Clozel et al., J. Pharmcol. Exp. Ther. 2004, 311, 204-212; cited from earlier work
T1 sequence (Q9UKP6 1-389): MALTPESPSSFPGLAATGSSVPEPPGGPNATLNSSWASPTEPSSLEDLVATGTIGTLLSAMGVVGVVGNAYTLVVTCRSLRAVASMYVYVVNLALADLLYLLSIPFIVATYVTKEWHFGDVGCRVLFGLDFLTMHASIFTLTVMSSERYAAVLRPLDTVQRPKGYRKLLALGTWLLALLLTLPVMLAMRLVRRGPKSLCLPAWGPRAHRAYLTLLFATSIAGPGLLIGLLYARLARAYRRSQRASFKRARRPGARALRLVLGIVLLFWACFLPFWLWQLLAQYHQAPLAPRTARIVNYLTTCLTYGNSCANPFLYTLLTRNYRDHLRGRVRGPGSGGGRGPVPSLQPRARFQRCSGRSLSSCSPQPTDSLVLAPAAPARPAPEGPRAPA

[2] = Behaviour of the free base at higher temperature and higher humidity; assay type: physicochemical
Excerpt: Therefore, the said compound of formula I as free base is not suitable as a pharmaceutical product since it is not easy to handle in pharmaceutical preparations. In addition, large scale production and storage of the said compound of formula I causes problems due to the properties mentioned above.

[3] = DVS 40° C., Cycle 1, target RH 0.0%
[4] = DVS 40° C., Cycle 1, target RH 20.0%
[5] = DVS 40° C., Cycle 1, target RH 40.0%
[6] = DVS 40° C., Cycle 1, target RH 60.0%
[7] = DVS 40° C., Cycle 1, target RH 85.0%
[8] = DVS 40° C., Cycle 2, target RH 0.0%
[9] = DVS 40° C., Cycle 2, target RH 20.0%
[10] = DVS 40° C., Cycle 2, target RH 40.0%
[11] = DVS 40° C., Cycle 2, target RH 60.0%
[12] = DVS 40° C., Cycle 2, target RH 85.0%
[13] = DVS 25° C., Cycle 1, target RH 0.0%
[14] = DVS 25° C., Cycle 1, target RH 20.0%
[15] = DVS 25° C., Cycle 1, target RH 40.0%
[16] = DVS 25° C., Cycle 1, target RH 60.0%
[17] = DVS 25° C., Cycle 1, target RH 85.0%
[18] = DVS 25° C., Cycle 2, target RH 0.0%
[19] = DVS 25° C., Cycle 2, target RH 20.0%
[20] = DVS 25° C., Cycle 2, target RH 40.0%
[21] = DVS 25° C., Cycle 2, target RH 60.0%
[22] = DVS 25° C., Cycle 2, target RH 85.0%
[23] = DVS 25° C., Cycle 3, target RH 0.0%
[24] = DVS 25° C., Cycle 3, target RH 85.0%
[25] = higher temperature and higher humidity

## Cc1cc(NC(=O)NCCN2CCC(O)(Cc3ccccc3)CC2)c2ccccc2n1.O.O.O.O=S(=O)(O)O [Example 1, 1-[2-(4-Benzyl-4-hydroxy-piperidin-1-yl)-ethyl]-3-(2-methyl-quinolin-4-yl)-urea Sulfate Trihydrate]
[1]; [3]
  Change In Mass (%) Desorption: −0.02%
  Change In Mass (%) Sorption: 0.00%
[1]; [4]
  Change In Mass (%) Desorption: 9.97%
  Change In Mass (%) Hysteresis: 0.26%
  Change In Mass (%) Sorption: 9.71%
[1]; [5]
  Change In Mass (%) Desorption: 10.26%
  Change In Mass (%) Hysteresis: 0.03%
  Change In Mass (%) Sorption: 10.23%
[1]; [6]
  Change In Mass (%) Desorption: 10.40%
  Change In Mass (%) Hysteresis: −0.02%
  Change In Mass (%) Sorption: 10.42%
[1]; [7]
  Change In Mass (%) Desorption: 10.68%
  Change In Mass (%) Sorption: 10.68%
[1]; [8]
  Change In Mass (%) Desorption: −0.02%
  Change In Mass (%) Sorption: −0.02%
[1]; [9]
  Change In Mass (%) Desorption: 9.98%
  Change In Mass (%) Hysteresis: 0.17%
  Change In Mass (%) Sorption: 9.81%
[1]; [10]
  Change In Mass (%) Desorption: 10.28%
  Change In Mass (%) Hysteresis: 0.02%
  Change In Mass (%) Sorption: 10.26%
[1]; [11]
  Change In Mass (%) Desorption: 10.42%
  Change In Mass (%) Hysteresis: 0.01%
  Change In Mass (%) Sorption: 10.42%
[1]; [12]
  Change In Mass (%) Desorption: 10.68%
  Change In Mass (%) Sorption: 10.68%

## Cc1cc(NC(=O)NCCN2CCC(O)(Cc3ccccc3)CC2)c2ccccc2n1.O.O.O.O=S(=O)(O)O [Example 2, 1-[2-(4-Benzyl-4-hydroxy-piperidin-1-yl)-ethyl]-3-(2-methyl-quinolin-4-yl)-urea Sulfate Trihydrate]
[1]; [13]
  Change In Mass (%) Desorption: −0.01%
  Change In Mass (%) Sorption: 0.00%
[1]; [14]
  Change In Mass (%) Desorption: 11.94%
  Change In Mass (%) Hysteresis: 0.57%
  Change In Mass (%) Sorption: 11.38%
[1]; [15]
  Change In Mass (%) Desorption: 12.31%
  Change In Mass (%) Hysteresis: 0.32%
  Change In Mass (%) Sorption: 12.00%
[1]; [16]
  Change In Mass (%) Desorption: 12.49%
  Change In Mass (%) Hysteresis: 0.08%
  Change In Mass (%) Sorption: 12.41%
[1]; [17]
  Change In Mass (%) Desorption: 12.70%
  Change In Mass (%) Sorption: 12.70%
[1]; [18]
  Change In Mass (%) Desorption: 0.00%
  Change In Mass (%) Sorption: −0.01%
[1]; [19]
  Change In Mass (%) Desorption: 11.95%
  Change In Mass (%) Hysteresis: 0.43%
  Change In Mass (%) Sorption: 11.52%
[1]; [20]
  Change In Mass (%) Desorption: 12.32%
  Change In Mass (%) Hysteresis: 0.25%
  Change In Mass (%) Sorption: 12.06%
[1]; [21]
  Change In Mass (%) Desorption: 12.49%
  Change In Mass (%) Hysteresis: 0.07%
  Change In Mass (%) Sorption: 12.41%
[1]; [22]
  Change In Mass (%) Desorption: 12.70%
  Change In Mass (%) Sorption: 12.70%
[1]; [23]
  Change In Mass (%) Desorption: 0.08%
  Change In Mass (%) Sorption: 0.00%
[1]; DVS 25° C., Cycle 3, target RH 20.0%
  Change In Mass (%) Sorption: 11.55%
[1]; DVS 25° C., Cycle 3, target RH 40.0%
  Change In Mass (%) Sorption: 12.07%
[1]; DVS 25° C., Cycle 3, target RH 60.0%
  Change In Mass (%) Sorption: 12.40%
[1]; [24]
  Change In Mass (%) Desorption: 12.69%
  Change In Mass (%) Sorption: 12.69%

## Cc1cc(NC(=O)NCCN2CCC(O)(Cc3ccccc3)CC2)c2ccccc2n1 [formula I, 1-[2-(4-Benzyl-4-hydroxy-piperidin-1-yl)-ethyl]-3-(2-methyl-quinolin-4-yl)-urea]
Urotensin II receptor
  urotensin II receptor antagonist activity: potent urotensin II receptor antagonist
[2]
  hygroscopicity: hygroscopic
[2]; [25]
  agglomeration: agglomerates to a substance cake
  colour stability: its colour changes at higher temperature and higher humidity
